Reference: US20040072146A1, “Mechanism of mitochondrial membrane permeabilization by HIV-1 Vpr, mimetics of Vpr and methods of screening active molecules having the ability to alter and/or prevent and/or mimic the interaction of Vpr with ANT” (priority 2000, published 2004)
“Also recorded” adds a separate entry of the source. Where a SMILES comes first, the peptide text is derived from it.

Assays:
[1] = biological target: biotinylated Vpr52-96 (Human immunodeficiency virus type 1 group M subtype B, UniProt P69726); format: binding, HIV-1
[2] = tested on: purified mitochondria; experiment: Inner versus outer mitochondrial membrane permeabilization (NADH oxidation, cytochrome c oxidation); format: biochemical; settings: for prevention of Vpr-mediated inner MMP to NADH: preincubation 10 min, Bcl-2 0.8 μM, BA 10 μM
Protocol: A. Respirometry performed after addition of NADH and Vpr52-96 (1 μM). Numbers along the traces are nmol of O2 consumed min^−1 mg^−1 protein.
B. Kinetics of Vpr52-96 induced inner membrane permeabilization to NADH and outer membrane permeabilization to reduced cytochrome c. Oxygen consumption was determined in the presence of 2 mM NADH (full squares) as in A (traces C-D) and cytochrome c (15 μM) oxidation (open circles) was spectrofluorometrically measured, as described Rustin et al., 1994). The 100% value of cytochrome c oxidation was determined by addition of 2.5 mM laurylmaltoside.
Oxygen consumption of purified mitochondria was measured as in FIG. 5 after addition of succinate+CCCP or NADH, as indicated.

[3] = tested on: purified mitochondria; experiment: ΔΨm dissipation in purified mitochondria (JC-1 flow cytometry); format: biochemical; settings: 5 μM CsA, 50 μM BA, 0.8 μM Bcl-2, 2 μM PA10
Protocol: Numbers indicate the percentage of JC-1^high and JC-1^low mitochondria among ˜10^4 events.
E. Quantitation of the frequency of JC-1^low mitochondria (X±SD, n=5) after incubation with different Vpr-derived peptides.

[4] = tested on: isolated mitochondria; experiment: Electron microscopy of isolated mitochondria (matrix swelling); format: biochemical; settings: pre-incubation of mitochondria
Description: C. Ultrastructural effects of Vpr on isolated mitochondria.

[5] = biological target: T1, ANT-proteoliposomes (Rattus norvegicus, UniProt Q05962); experiment: FITC-labeled Vpr52-96 binding onto ANT-liposomes and plain liposomes; settings: BA 50 μM; Bcl-2 800 nM
T1 construct: ANT is purified from rat heart and reconstituted in liposomes; from tissue; host or cells: rat heart (ANT)
T1 sequence (Q05962 1-298): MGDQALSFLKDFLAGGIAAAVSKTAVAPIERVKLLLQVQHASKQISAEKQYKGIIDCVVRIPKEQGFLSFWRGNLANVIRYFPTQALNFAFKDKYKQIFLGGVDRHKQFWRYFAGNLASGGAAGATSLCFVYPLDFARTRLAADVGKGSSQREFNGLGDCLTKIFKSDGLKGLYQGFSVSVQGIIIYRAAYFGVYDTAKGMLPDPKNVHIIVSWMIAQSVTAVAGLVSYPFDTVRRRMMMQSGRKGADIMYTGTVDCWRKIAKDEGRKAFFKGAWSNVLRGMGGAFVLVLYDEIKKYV
Protocol: A. Dose-response curve of FITC-labeled Vpr52-96 binding onto ANT-liposomes and plain liposomes.
B. Binding of FITC-Vpr52-96 (2 μM) to plain liposomes, ANT-proteoliposomes, in the presence or absence of BA (50 μM).

[6] = tested on: purified mitochondria; experiment: FITC-Vpr52-96 binding to purified mitochondria; settings: pre-incubation of the organelles
Protocol: Mitochondria were left unstained (insert in Co.) or exposed to the ΔΨm-insensitive mitochondrial dye MitoTracker® Green (75 nM), alone (MTG) or with 0.5 μM of FITC-Vpr52-96; green fluorescence), in combination with the ΔΨm-sensitive mitochondrial dye MitoTracker® Red (CMXRos; red Fluorescence) followed by cytofluorometric two-color analysis. Numbers indicate the percentage of mitochondria in each quadrant.
Mitochondria were incubated with the indicated inhibitors, and then exposed for 30 min at RT with 5 μM biotinylated Vpr52-96. Mitochondria were lysed either after incubation with biotinylated Vpr52-96 (upper panel) or lysed before (lower panel) with Tris/HCl as described in materials and methods. Biotinylated Vpr52-96 complexed with its mitochondrial ligands was retained on avidin-agarose and subjected to immunoblot detection of ANT.

[7] = biological target: biotin-Vpr52-96 (HIV-1) (UniProt P12520); experiment: SPR, Langmuir isotherm, peptide on biotinylated Vpr52-96
[8] = biological target: T2, ANT (Rattus norvegicus, UniProt Q05962); experiment: Single channel recordings in planar lipid bilayers; format: biochemical
T2 construct: from tissue
T2 sequence (Q05962 whole entry, looked up): T1 sequence (Q05962 1-298)
Protocol: FIG. 3 presents electrophysiological properties of Vpr52-96 and ANT in planar lipid bilayers. Current fluctuations of Vpr52-96 (80 nM, +150 mV), Vpr52-96(0.4 nM, +100 mV), ANT (1 nM, +110 mV) and Vpr52-96+ANT (0.4:1 nM, +115 mV) and associated histograms (right) of conductance levels are shown.
Current fluctuations of Vpr52-96 (80 nM, +150 mV), Vpr52-96 (0.4 nM, +100 mV), ANT (1 nM, +110 mV) and Vpr52-96+ANT (0.4:1 nM, 115 mV) after incorporation into synthetic membranes. Single channel recordings were performed using the “Tip-Dip” technique. The recordings shown are representative for at least three independent determinations.
B. Statistical analysis of conductances obtained in A. Results were expressed as current distributions at different voltages. Conductances (γ; in picosiemens, pS) are calculated by division of current by voltage.

[9] = tested on: COS cells; experiment: ΔΨm dissipation in intact microinjected cells (JC-1); format: cell-based
Description: A. Vpr52-96-induced ΔΨm dissipation induced in intact cells.

[10] = tested on: purified mitochondria; experiment: Respirometry of purified mitochondria, respiratory control; format: biochemical; settings: for effect on respiratory control (RC): 1 μM peptide, 10 min
Protocol: A. Oxygen consumption curves after addition of the indicated agents. Trace a: control mitochondria (no pretreatment). Trace b: mitochondria pretreated for 10 min with 1 μM Vpr52-96. Numbers along the traces are nmol of O2 consumed min^−1 mg^31 1 protein.
B. Respiratory control (RC) values calculated by dividing oxygen consumption in the presence of CCCP by that measured with oligomycin (determined as in A), 10 min after addition of 1 μM of Vpr-derived peptides (mean values of 3 determinations).

[11] = biological target: biotin-Vpr52-96 (HIV-1), P12520; experiment: SPR, immobilised biotin-Vpr52-96, detergent-solubilized ANT as analyte
[12] = biological target: T3, adenine nucleotide translocator (ANT), native purified protein (rat), Q05962; experiment: cell-based or functional assay
T3 chain: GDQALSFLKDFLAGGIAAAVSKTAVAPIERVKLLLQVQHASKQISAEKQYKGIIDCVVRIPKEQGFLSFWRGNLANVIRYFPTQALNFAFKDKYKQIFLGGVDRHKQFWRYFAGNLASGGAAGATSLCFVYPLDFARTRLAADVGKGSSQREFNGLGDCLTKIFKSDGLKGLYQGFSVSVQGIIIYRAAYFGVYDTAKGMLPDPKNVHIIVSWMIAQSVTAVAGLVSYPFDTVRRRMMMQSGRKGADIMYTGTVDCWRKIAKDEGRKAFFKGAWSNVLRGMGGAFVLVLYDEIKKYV

[13] = biological target: T4, adenine nucleotide translocator (ANT), native purified protein (rat, UniProt Q05962 2-298); experiment: not stated (summary paragraph)
T4 construct: mature; also called adenine nucleotide translocase; ADP/ATP carrier
T4 sequence: T3 chain

Molecule: C[C@H](NC(=O)[C@H](Cc1ccccc1)NC(=O)[C@H](Cc1ccc(O)cc1)NC(=O)[C@H](CCCNC(=N)N)NC(=O)[C@H](Cc1c[nH]c2ccccc12)NC(=O)[C@H](Cc1ccccc1)NC(=O)[C@H](CCC(N)=O)NC(=O)[C@@H](NC(=O)[C@H](CCCNC(=N)N)NC(=O)[C@H](CCCCN)NC(=O)[C@@H](N)CC(=O)O)[C@@H](C)O)C(=O)NCC(=O)N[C@@H](CC(N)=O)C(=O)O [ANT104-116] (H-DKRTQFWRYFAGN-OH; N-terminus and C-terminus assumed)
- Kd ([1]; read-out: calculated KD of binding of ANT104-116 to biotinylated Vpr52-96, Langmuir isotherm): 35 µM

Molecule: CO[C@H](C/C=C\C=C\CC/C=C/C[C@H](C)/C=C/C(=C\C(=O)O)CC(=O)O)/C(C)=C\C=C(/C)C(=O)O [bongkrekic acid, reference compound]
- prevention of Vpr-mediated inner MMP to NADH [2]: prevented the Vpr-mediated inner MMP to NADH
- inhibition of Vpr-induced ΔΨm loss in purified mitochondria [3]: inhibited
- inhibition of Vpr-induced matrix swelling [4]: inhibited
- effect on Vpr52-96 binding to ANT liposomes (membrane-associated ANT) [5]: inhibited
- effect on binding of Vpr52-96 to purified mitochondria [6]: partially reduced

Molecule: C=C(C)[C@H]1Cc2c(ccc3c2O[C@@H]2COc4cc(OC)c(OC)cc4[C@@H]2C3=O)O1 [rotenone, reference compound]
- sensitivity of Vpr-stimulated, NADH-dependent O2 consumption [2]: fully sensitive to rotenone

Molecule: ANT-2-derived peptide ANT104-116
- Kd [7]: 35 µM

Molecule: Bax: pro-apoptotic Bcl-2 family protein added to Vpr52-96-ANT channels
- mean conductance of Vpr52-96-ANT channels with Bax ([8]; Vpr52-96+ANT+Bax 0.4:1:0.3 nM, +75 mV): 245±2 S

Molecule: Bcl-2: recombinant human Bcl-2 protein
- prevention of Vpr-mediated inner MMP to NADH [2]: prevented the Vpr-mediated inner MMP to NADH
- inhibition of Vpr-induced ΔΨm loss in purified mitochondria [3]: inhibited; also recorded: strongly reduced
- binding to Vpr52-96 [1]: did not bind Vpr52-96
- inhibition of Vpr-induced matrix swelling [4]: inhibited; also recorded: strongly reduced
- effect on Vpr52-96 binding to ANT liposomes (membrane-associated ANT) [5]: reduced Vpr52-96 binding
- effect on binding of Vpr52-96 to purified mitochondria [6]: failed to impair the binding of Vpr52-96 to purified mitochondria
- prevention of Vpr effects on intact cells ([9]; microinjected, Bcl-2 10 μM, PA10 2 μM): prevented
- effect on formation of Vpr52-96 induced channels in ANT-containing lipid bilayers ([8]; Vpr52-96+ANT+Bcl-2 0.4:1:1 nM): abolished the formation of Vpr52-96 induced channels in ANT-containing lipid bilayers

Molecule: HFRIGCRHSRIG [Vpr71-82]
- effect on respiratory control (RC) [10]: also reduced the RC values

Molecule: Vpr: proapoptotic 96 amino acid HIV-1 regulatory protein, full length Vpr1-96 (DTWAGVEAIIRILQQLLFIHFRIGCRHSRIGVTRQRRARNGASRS)
- effect on respiratory control (RC) [10]: also reduced the RC values
- oxidation rate accompanying loss of RC ([10]; short-term incubation): not associated with a significant decrease of the oxidation rate
- ΔΨm loss in intact cells ([9]; extracellular addition): induced a rapid ΔΨm loss, before nuclear condensation occurred

B1: adenine nucleotide translocator (ANT), native purified protein, Q05962 2-298 (protein)
chain: T3 chain
- Kd [11]: 0.0097 µM

B2: Vpr52-96, P12520 52-96 (peptide)
peptide: DTWAGVEAIIRILQQLLFIHFRIGCRHSRIGVTRQRRARNGASRS
modifications: not checked
- conductance of Vpr52-96-ANT channels in the presence of Bax [12]: 245 pS
- conductance of channels formed by ANT and Vpr52-96 in planar lipid bilayers [12]: 190 pS

B3: HIV-1 Vpr (other)
chain: B2 peptide
notes: also called viral protein R
- Kd [13]: 0.001 µM
